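In this assay, cells in 96-well plates receive the compound at five concentrations for 48 hours. Endpoints are linearly interpolated between the surrounding concentrations. GI50 marks 50% less growth. TGI: total growth inhibition.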
Experiments:
Test in all cases: NCI-60 cell line screen, 48 h
[1] = tested on: 786-0 renal
[2] = tested on: A498 renal
[3] = tested on: A549 NSCLC
[4] = tested on: ACHN renal
[5] = tested on: BT-549 breast
[6] = tested on: CAKI-1 renal
[7] = tested on: CCRF-CEM leukemia
[8] = tested on: COLO 205 colon
[9] = tested on: DU-145 prostate
[10] = tested on: EKVX NSCLC
[11] = tested on: HCC-2998 colon
[12] = tested on: HCT-116 colon
[13] = tested on: HCT-15 colon
[14] = tested on: HL-60(TB) leukemia
[15] = tested on: HOP-62 NSCLC
[16] = tested on: HOP-92 NSCLC
[17] = tested on: HS 578T breast
[18] = tested on: IGROV1 ovarian
[19] = tested on: K-562 leukemia
[20] = tested on: KM12 colon
[21] = tested on: LOX IMVI melanoma
[22] = tested on: M14 melanoma
[23] = tested on: MCF7 breast
[24] = tested on: MDA-MB-231 breast
[25] = tested on: MDA-MB-435
[26] = tested on: MOLT-4 leukemia
[27] = tested on: NCI-H226 lung
[28] = tested on: NCI-H23 lung
[29] = tested on: NCI-H460 lung
[30] = tested on: NCI-H522 lung
[31] = tested on: NCI/ADR-RES ovarian
[32] = tested on: OVCAR-3 ovarian
[33] = tested on: OVCAR-4 ovarian
[34] = tested on: OVCAR-5 ovarian
[35] = tested on: OVCAR-8 ovarian
[36] = tested on: PC-3 prostate
[37] = tested on: RPMI-8226 leukemia
[38] = tested on: RXF 393 renal
[39] = tested on: SF-268 CNS
[40] = tested on: SF-295 CNS
[41] = tested on: SF-539 CNS
[42] = tested on: SK-MEL-2 melanoma
[43] = tested on: SK-MEL-28 melanoma
[44] = tested on: SK-MEL-5 melanoma
[45] = tested on: SK-OV-3 ovarian
[46] = tested on: SN12C renal
[47] = tested on: SNB-19 CNS
[48] = tested on: SNB-75 CNS
[49] = tested on: SR leukemia
[50] = tested on: SW-620 colon
[51] = tested on: T-47D breast
[52] = tested on: TK-10 renal
[53] = tested on: UACC-257 melanoma
[54] = tested on: UACC-62 melanoma
[55] = tested on: UO-31 renal
[56] = tested on: HT29 colon
[57] = tested on: MALME-3M melanoma
[58] = tested on: U251 CNS

Cc1c(C(=O)N/N=C/c2ccc(O)cc2)nnn1-c1ccnc2c(C(F)(F)F)cccc12 was tested, and the GI50 [1] was 44.4 µM, the TGI [1] was greater than 100 µM and the GI50 [2] was 36.6 µM. It also gave a TGI [2] greater than 100 µM, a GI50 [3] greater than 100 µM and a TGI [3] greater than 100 µM. For the same compound, the GI50 [4] was 41.1 µM, the TGI [4] was greater than 100 µM and the GI50 [5] was 41.6 µM. For the same compound, the TGI [5] was greater than 100 µM, the GI50 [6] was greater than 100 µM and the TGI [6] was greater than 100 µM. For the same compound, the GI50 [7] was greater than 100 µM, the TGI [7] was greater than 100 µM and the GI50 [8] was greater than 100 µM. For the same compound, the TGI [8] was greater than 100 µM, the GI50 [9] was greater than 100 µM and the TGI [9] was greater than 100 µM. The GI50 [10] was greater than 100 µM, the TGI [10] was greater than 100 µM and the GI50 [11] was greater than 100 µM. The TGI [11] was greater than 100 µM, the GI50 [12] was 50.1 µM and the TGI [12] was greater than 100 µM. For the same compound, the GI50 [13] was greater than 100 µM, the TGI [13] was greater than 100 µM and the GI50 [14] was greater than 100 µM. For the same compound, the TGI [14] was greater than 100 µM, the GI50 [15] was 17.5 µM and the TGI [15] was 37 µM. The GI50 [16] was 17 µM, the TGI [16] was 50.4 µM and the GI50 [17] was 44.6 µM. The TGI [17] was greater than 100 µM, the GI50 [18] was greater than 100 µM and the TGI [18] was greater than 100 µM. For the same compound, the GI50 [19] was greater than 100 µM, the TGI [19] was greater than 100 µM and the GI50 [20] was greater than 100 µM. It also gave a TGI [20] greater than 100 µM, a GI50 [21] of 46.8 µM and a TGI [21] greater than 100 µM. It also gave a GI50 [22] greater than 100 µM, a TGI [22] greater than 100 µM and a GI50 [23] of 9.12 µM. The TGI [23] was greater than 100 µM, the GI50 [24] was 12.7 µM and the TGI [24] was 48.4 µM. It also gave a GI50 [25] greater than 100 µM, a TGI [25] greater than 100 µM and a GI50 [26] greater than 100 µM. The TGI [26] was greater than 100 µM, the GI50 [27] was 36.9 µM and the TGI [27] was greater than 100 µM. For the same compound, the GI50 [28] was 29.3 µM, the TGI [28] was greater than 100 µM and the GI50 [29] was greater than 100 µM. The TGI [29] was greater than 100 µM, the GI50 [30] was 49.9 µM and the TGI [30] was greater than 100 µM. It also gave a GI50 [31] greater than 100 µM, a TGI [31] greater than 100 µM and a GI50 [32] greater than 100 µM. For the same compound, the TGI [32] was greater than 100 µM, the GI50 [33] was 5.09 µM and the TGI [33] was greater than 100 µM. For the same compound, the GI50 [34] was greater than 100 µM, the TGI [34] was greater than 100 µM and the GI50 [35] was 21.5 µM. It also gave a TGI [35] greater than 100 µM, a GI50 [36] greater than 100 µM and a TGI [36] greater than 100 µM. For the same compound, the GI50 [37] was greater than 100 µM, the TGI [37] was greater than 100 µM and the GI50 [38] was 5.22 µM. It also gave a TGI [38] of 34.6 µM, a GI50 [39] of 64.4 µM and a TGI [39] greater than 100 µM. For the same compound, the GI50 [40] was 22 µM, the TGI [40] was greater than 100 µM and the GI50 [41] was 42 µM. The TGI [41] was greater than 100 µM, the GI50 [42] was greater than 100 µM and the TGI [42] was greater than 100 µM. The GI50 [43] was greater than 100 µM, the TGI [43] was greater than 100 µM and the GI50 [44] was greater than 100 µM. It also gave a TGI [44] greater than 100 µM, a GI50 [45] of 27.2 µM and a TGI [45] of 76.7 µM. It also gave a GI50 [46] of 16.3 µM, a TGI [46] of 83.3 µM and a GI50 [47] of 23.5 µM. It also gave a TGI [47] of 76.7 µM, a GI50 [48] of 19.1 µM and a TGI [48] of 40 µM. The GI50 [49] was 44.1 µM, the TGI [49] was greater than 100 µM and the GI50 [50] was greater than 100 µM. The TGI [50] was greater than 100 µM, the GI50 [51] was 92.5 µM and the TGI [51] was greater than 100 µM. The GI50 [52] was greater than 100 µM, the TGI [52] was greater than 100 µM and the GI50 [53] was greater than 100 µM. The TGI [53] was greater than 100 µM, the GI50 [54] was greater than 100 µM and the TGI [54] was greater than 100 µM. For the same compound, the GI50 [55] was greater than 100 µM and the TGI [55] was greater than 100 µM.

Compound c1ccc(Oc2c3ccccc3nc3ccccc23)cc1 has a GI50 [1] of 3.08 µM, a TGI [1] of 10.7 µM and a GI50 [2] of 4.49 µM. The TGI [2] was 25.8 µM, the GI50 [3] was 4.62 µM and the TGI [3] was 27 µM. For the same compound, the GI50 [4] was 3.61 µM, the TGI [4] was 13.7 µM and the GI50 [6] was 6.07 µM. For the same compound, the TGI [6] was 19.5 µM, the GI50 [7] was 1.12 µM and the TGI [7] was greater than 100 µM. The GI50 [8] was 2.61 µM, the TGI [8] was 6.07 µM and the GI50 [9] was 3.72 µM. For the same compound, the TGI [9] was 11.2 µM, the GI50 [10] was 4.43 µM and the TGI [10] was 20.9 µM. It also gave a GI50 [11] of 2.87 µM, a TGI [11] of 7.97 µM and a GI50 [12] of 0.714 µM. It also gave a TGI [12] of 3.13 µM, a GI50 [13] of 3.06 µM and a TGI [13] of 12.3 µM. The GI50 [14] was 0.541 µM, the TGI [14] was 5.79 µM and the GI50 [15] was 3.53 µM. The TGI [15] was 12.3 µM, the GI50 [16] was 2.24 µM and the TGI [16] was 8.63 µM. The GI50 [17] was 6.99 µM, the TGI [17] was greater than 100 µM and the GI50 [56] was 0.48 µM. For the same compound, the TGI [56] was 2.83 µM, the GI50 [18] was 4.31 µM and the TGI [18] was 15.8 µM. For the same compound, the GI50 [19] was 0.454 µM, the TGI [19] was 24.7 µM and the GI50 [20] was 3.64 µM. The TGI [20] was 11 µM, the GI50 [21] was 1.73 µM and the TGI [21] was 11.8 µM. The GI50 [22] was 3.4 µM, the TGI [22] was 10.7 µM and the GI50 [57] was 2.15 µM. For the same compound, the TGI [57] was 8.71 µM, the GI50 [23] was 2.48 µM and the TGI [23] was 17.5 µM. The GI50 [24] was 3.08 µM, the TGI [24] was 9.82 µM and the GI50 [25] was 1.77 µM. It also gave a TGI [25] of 6.16 µM, a GI50 [26] of 0.82 µM and a TGI [26] of 48 µM. It also gave a GI50 [27] of 6.89 µM, a TGI [27] of 27.1 µM and a GI50 [28] of 3.71 µM. For the same compound, the TGI [28] was 14.3 µM, the GI50 [29] was 3.29 µM and the TGI [29] was 10.3 µM. The GI50 [30] was 2.22 µM, the TGI [30] was 10.7 µM and the GI50 [31] was 7.32 µM. It also gave a TGI [31] of 27 µM, a GI50 [32] of 3.41 µM and a TGI [32] of 13.2 µM. It also gave a GI50 [33] of 4.33 µM, a TGI [33] of 21.2 µM and a GI50 [34] of 3.7 µM. For the same compound, the TGI [34] was 13.7 µM, the GI50 [35] was 6.22 µM and the TGI [35] was 24.8 µM. It also gave a GI50 [36] of 4.91 µM, a TGI [36] of 15.8 µM and a GI50 [37] of 4.75 µM. The TGI [37] was 24.6 µM, the GI50 [38] was 3.6 µM and the TGI [38] was 15.1 µM. It also gave a GI50 [39] of 5.28 µM, a TGI [39] of 17.3 µM and a GI50 [40] of 5.03 µM. For the same compound, the TGI [40] was greater than 100 µM, the GI50 [41] was 2 µM and the TGI [41] was 5.22 µM. It also gave a GI50 [42] of 3.95 µM, a TGI [42] of 17.6 µM and a GI50 [43] of 11.3 µM. The TGI [43] was 24.1 µM, the GI50 [44] was 3.5 µM and the TGI [44] was 11.7 µM. The GI50 [45] was 4.34 µM, the TGI [45] was 21 µM and the GI50 [46] was 5.27 µM. It also gave a TGI [46] of 16.8 µM, a GI50 [47] of 5.35 µM and a TGI [47] of 18 µM. The GI50 [48] was 3.49 µM, the TGI [48] was 14.2 µM and the GI50 [49] was 2.97 µM. It also gave a TGI [49] of 54.3 µM, a GI50 [50] of 1.64 µM and a TGI [50] of 17.5 µM. It also gave a GI50 [51] of 2.81 µM, a TGI [51] of 10.9 µM and a GI50 [58] of 3.26 µM. It also gave a TGI [58] of 11 µM, a GI50 [53] of 9.59 µM and a TGI [53] of 26.3 µM. For the same compound, the GI50 [54] was 4.97 µM, the TGI [54] was 16.9 µM and the GI50 [55] was 5.64 µM. For the same compound, the TGI [55] was 19.1 µM.

Source: PubChem BioAssay (NCI)
